Source: patent US7038111B2, “Method for increasing stress tolerance in plants” (The Arizona Board of Regents, priority 2001, dated 2006)

Key:
Type in all cases: in vivo, Arabidopsis thaliana
RD29A-LUC = RD29A-LUC luminescence expression in seedlings, ABA given together with salt or cold stress
Method: Arabidopsis thaliana (C24 ecotype) expressing the RD29A-LUC transgene (referred to as the wild type) were obtained by Agrobacterium-mediated transformation (Ishitani et al., 1997). Seeds of wild type RD29A-LUC were mutagenized by ethyl methanesulfonate (Ishitani et al., 1997). M2 were planted on 0.6% agar plates containing full strength Murashige and Skoog salt base (MS salt base; JRH Biosceicnes, Lenex, Kans.) and were germinated and grown at 22±2° C. under continuous white light. One-week-old seedlings were screened for mutants with altered RD29A-LUC (i.e. luminescence) expression in response to low temperature, ABA, or osmotic stress using a thermoelectrically cooled CCD camera. For luminescence imaging, plants were sprayed with 1 mM luciferin in 0.01% Triton X-100 and then kept in the dark for 5 min before imaging. All images were acquired with a 5 min exposure time. The luminescence intensity of each seedling was quantified with the WinView software.
For ABA treatment, 100 μM (±)-cis, trans-abscisic acid in H2O was sprayed uniformly on leaves of seedlings and the plants were incubated at room temperature under cool-white light for 4 hr (for luminescence imaging) or 3 hr (for RNA analysis). For NaCl or PEG treatment, seedlings on MS plates were transferred to filter paper saturated with MS solution supplemented with 300 mM NaCl or 30% of polyethylene glycol (molecular weight 6,000) and incubated for 5 hr. Unless otherwise stated, cold treatment for image analysis and RNA analysis were done by incubating seedlings growing in plates at 0° C. in the dark for 48 hr (for imaging) or 12 hr (for RNA analysis). Because longer treatment at −5 or −10° C. will result in freezing of the agar media, these freezing temperature treatments only lasted for 3 hr. After the treatment, the plates were placed at room temperature for 2 hr to thaw before luminescence images acquisition. For ABA plus NaCl treatment, seedlings were transferred onto a filter paper saturated with 300 mM NaCl in MS solution and sprayed immediately with 100 μM ABA. […]

[1] = tested on: Arabidopsis wild type and los5-1 plants; assay: Transpirational water loss of detached aerial parts after ABA spray; conditions: sprayed with 100 μM ABA 3 hr before detaching aerial parts
Method: To determine whether los5 mutant plants are deficient in ABA or are insensitive to ABA, wild type and los5-1 plants at the rosette stage were sprayed with 100 μM ABA 3 hr before detaching the aerial parts for water loss measurement.
For water loss measurement, plants at the rosette stage were detached from soil surface and weighed immediately in a plastic weighing boat. The boat with the plants was then placed on laboratory bench (relative humidity ˜30%) and weighed at designated time intervals. There were four replicates for each line. Percent loss of fresh weight was calculated based on the initial weight of the plants.

LOS5/ABA3 gene = assay: RNA blot analysis of LOS5/ABA3 transcript level; conditions: wild type seedlings, 100 μM ABA for 4 hr
Method: […] For NaCl or PEG treatment, seedlings on MS plates were transferred to filter paper saturated with MS solution supplemented with 300 mM NaCl or 30% of polyethylene glycol (molecular weight 6,000) and incubated for 5 hr. Unless otherwise stated, cold treatment for image analysis and RNA analysis were done by incubating seedlings growing in plates at 0° C. in the dark for 48 hr (for imaging) or 12 hr (for RNA analysis). Because longer treatment at −5 or −10° C. will result in freezing of the agar media, these freezing temperature treatments only lasted for 3 hr. After the treatment, the plates were placed at room temperature for 2 hr to thaw before luminescence images acquisition. For ABA plus NaCl treatment, seedlings were transferred onto a filter paper saturated with 300 mM NaCl in MS solution and sprayed immediately with 100 μM ABA. The plants were then incubated under cool-white light for 4 hr before luciferase imaging. For low temperature plus ABA treatment, seedlings on agar plates were briefly incubated at 0±1° C. for 10 min and then sprayed with 100 μM ABA and incubated in the dark at 0±1° C. for 48 hr before image analysis.
Ten-day-old seedlings on MS agar plates were treated were treated with cold, ABA, NaCl, or PEG as described in the above section. […] Total RNA from control or treated plants was extracted and analyzed as described (Ishitani et al., 1998). […]

In the case of `CC1=CC(=O)CC(C)(C)C1(O)/C=C/C(C)=C\C(=O)O` (racemic) [ABA, (±)-cis, trans-abscisic acid], the RD29A-LUC expression (RD29A-LUC; los5 and los6/aba1 seedlings, 100 μM ABA administered simultaneously with 300 mM NaCl, 4 hr) is reported as “restored to the wild type level or higher”, the RD29A-LUC expression (RD29A-LUC; los5 mutant seedlings, 100 μM ABA together with cold, 0° C. for 48 hr) is reported as “failed to restore” and the RD29A-LUC luminescence expression (RD29A-LUC; los6/aba1 seedlings, 100 μM ABA together with cold, 0° C. for 48 hr) is reported as “close to the wild type level”. For the same compound, the “rate of water loss” value ([1]; los5-1 plants at rosette stage) was “reduced substantially”, the transpirational water loss ([1]; wild type plants at rosette stage) was “did not significantly affect” and the “transcript level of LOS5” value (LOS5/ABA3 gene) was “increases significantly”.
